In US20230174472A1, “THERAPEUTIC USE OF PLEUROMUTILINS” (priority 2020, published 2023):
Where two headings read alike, the source gives them in different places.

Legend:
in vitro [1] = details: dog
[2] = test system: influenza A/Puerto Rico/8/34 (H1N1); assay type: in vivo, BALB/c mice
[3] = test system: vesicular stomatitis virus (VSV); details: cited from earlier work
[4] = test system: herpes simplex type 1 (HSV-1) virus; details: cited from earlier work
[5] = test system: influenza A virus strain (PR8); details: cited from earlier work
polio virus = details: cited from earlier work
[6] = test system: alpha coronavirus 229E (HCoV-229E); test: inhibition of virus-induced CPE, CoV229E in MRC-5 cells (XTT); assay type: cell-based
Protocol: The antiviral compound Remdesivir served as positive control.
Lefamulin (as acetate) was evaluated using different treatment conditions of 4 h, 1 h or 0 h incubation prior to virus addition and addition 1 h after infection For this particular set of experiments, coronavirus was diluted 1:200 in assay medium and added at 100 μL/well to achieve approximately 90% cell killing in the untreated virus control wells (MOI of 0.001).

in vitro [7] = details: human
[8] = test system: human rhinovirus strain HRV16 strain 11757; test: inhibition of virus-induced CPE, human rhinovirus in H1-HeLa cells; assay type: cell-based; details: Human rhinovirus sp., 4 hour pretreatment
Protocol: Cell viability determination as well as EC50 and TC50 calculations were performed as described in Examples 6 and 8.

in vitro [9] = details: human; remark: listed apart in the source
[10] = test system: mice challenged with lipopolysaccharide (LPS); test: modified LPS induced lung neutrophilia model, BALF cell counts 24 h post LPS (Example 4)
[11] = cell viability of uninfected Huh7 cells; details: human, TC50, Example 13 (Zika assay)
[12] = test system: human respiratory syncytial virus (strain RSVA2); test: inhibition of virus-induced CPE, RSVA2 in HEp2 cells (XTT)
[13] = test system: respiratory syncytial virus (RSV B18537); test: inhibition of virus-induced CPE, RSV B18537 in HEp2 cells; details: Example 10; investigated strain of RSV B
[14] = test system: respiratory syncytial virus (RSV ALONG); test: inhibition of virus-induced CPE, RSV ALONG in HEp2 cells; details: Example 10; investigated strain of RSV A
HEp2 cells = test: cell viability of uninfected HEp2 cells (XTT); details: Example 8
MRC-5 cells = details: Example 6
[15] = test system: human respiratory syncytial virus (strain RSVA2); details: Example 8
in vitro [16] = details: human, TC50
[17] = test system: TNF-α, IL-6, IL-1β, GM-CSF, CXCL1, CXCL2, CCL2, MMP9 in lung homogenate; test: LPS induced lung neutrophilia model, marker concentrations in lung homogenate (Example 2)
[18] = test system: influenza A virus, porcine reproductive and respiratory syndrome virus (PRRSV) type 1 and 2; details: WO 2009/106839; compared to Tiamulin 0.1-10 μg/mL; cited from earlier work
[19] = test system: lipopolysaccharide (LPS)-induced ALI; details: cited from earlier work
[20] = test system: mice challenged with lipopolysaccharide (LPS); test: LPS induced lung neutrophilia model, BALF cell counts (Example 2); details: 10, 30 and 100 mg/kg SC; 4 h post LPS
[21] = lower doses of 10 and 30 mg/kg SC
[22] = same doses (10, 30, 100 mg/kg SC)

## CCOC(=O)C1=C[C@@H](OC(CC)CC)[C@H](NC(C)=O)[C@@H](N)C1 [Oseltamivir, reference compound]
In vitro [1]
  CC50: > 200000 nM
[2]; Lefamulin at both doses, Oseltamivir positive control, Day 3 and Day 6, vs vehicle treated control
  lung viral titres (TCID50 on MDCK cells): reduced
[2]; positive control treatment
  bodyweight loss: reduction
  clinical scores: reduction

## C=C[C@]1(C)C[C@@H](OC(=O)CO)[C@]2(C)[C@H](C)CC[C@]3(CCC(=O)[C@H]32)[C@@H](C)[C@@H]1O [Pleuromutilin]
[3]
  activity against vesicular stomatitis virus (VSV): activity
[4]
  concentration that conferred a 50% protection of the cytopathic effect induced by HSV-1 (CPE50): 15 µg/mL
[4]; read-out: concentration that conferred a 50% protection of the cytopathic effect induced by HSV-1 (CPE50)
  EC50: 40000 nM
[5]
  concentration with antiviral activity: 2 mg/mL
Polio virus
  antiviral activity for polio virus: did not show antiviral activity

## CCC(CC)COC(=O)[C@H](C)N[P@](=O)(OC[C@H]1O[C@@](C#N)(c2ccc3c(N)ncnn23)[C@H](O)[C@@H]1O)Oc1ccccc1 [Remdesivir, reference compound]
[6]; Human coronavirus 229E, MRC5
  EC50: 110 nM
In vitro [7]
  CC50: > 5000 nM

## CCOC(=O)/C=C/[C@H](C[C@@H]1CCNC1=O)NC(=O)[C@@H](CC(=O)[C@@H](NC(=O)c1cc(C)on1)C(C)C)Cc1ccc(F)cc1 [Rupintrivir]
[8]
  EC50: 4.9 nM
[8]; MOI 0.0005, Lefamulin as acetate
  EC50: 4.9 nM
In vitro [9]
  CC50: > 100 nM

## C=C(CC(=O)[O-])C(=O)[O-].[Na+].[Na+] [Sodium itaconate, reference compound]
[10]; 55 mg/kg single SC dose 30 min prior to IN LPS
  BALF cell counts: some reduction

## CC(C)OC(=O)[C@H](C)N[P@](=O)(OC[C@H]1O[C@@H](n2ccc(=O)[nH]c2=O)[C@](C)(F)[C@@H]1O)Oc1ccccc1 [Sofosbuvir, reference compound]
[11]
  CC50 at 6 days: > 10000 nM

## Cc1ccc(CCCO)c(NCc2ccc3nc(NCCCN4CCOCC4)n(Cc4nc(C)ccc4O)c3c2)c1 [TMC353121]
[12]; Example 8, HEp2 cells, 4 h incubation prior to virus, MOI 0.001, 6 days post-infection, Lefamulin as acetate, Tiamulin as fumarate
  EC50: 0.6 nM
[12]; Example 9, MOI 0.0004
  EC50: 0.04 nM
[12]; Example 9, MOI 0.0008
  EC50: 0.3 nM
[12]; Example 9, MOI 0.001
  EC50: 0.2 nM
[12]; Example 9, MOI 0.003
  EC50: 0.2 nM
[13]
  EC50: 0.01 nM
[14]
  EC50: 0.01 nM

## C=C[C@]1(C)C[C@@H](OC(=O)CSCCN(CC)CC)[C@]2(C)[C@H](C)CC[C@]3(CCC(=O)[C@H]32)[C@@H](C)[C@@H]1O [Tiamulin, reference compound]
HEp2 cells; 10 μM
  viability: 84%
HEp2 cells; 50 μM
  viability: 70.0%
[6]; 10 µM
  reduction of viral CPE: 10.53%
[6]; 50 μM
  reduction of viral CPE: 81.68%
[6]; Example 6, MRC-5 cells, 4 h incubation prior to virus, MOI 0.001, 6 days post-infection, Lefamulin as acetate, Tiamulin as fumarate, read-out: EC50
  EC50: 24400 nM
[12]; human respiratory syncytial virus, HEp-2, Example 8, HEp2 cells, 4 h incubation prior to virus, MOI 0.001, 6 days post-infection, Lefamulin as acetate, Tiamulin as fumarate
  EC50: > 67900 nM
In vitro [7]
  CC50 at 6 days: 62900 nM
MRC-5 cells; 10 μM
  cytotoxic effect on the viability of the cell control: no cytotoxic effect
MRC-5 cells; 50 μM
  cytotoxic effect on the viability of the cell control: cytotoxic effect
[15]; 10 μM
  reduction of viral CPE: 16.76%
[15]; 50 μM
  reduction of viral CPE: 43.28%
In vitro [16]
  CC50 at 6 days: 67900 nM

## C=C[C@]1(C)C[C@@H](OC(=O)CSC(C)(C)CNC(=O)[C@H](N)C(C)C)[C@]2(C)[C@H](C)CC[C@]3(CCC(=O)[C@H]32)[C@@H](C)[C@@H]1O [Valnemulin, reference compound]
[17]; 100 mg/kg SC
  reduction of MMP9 levels in lung homogenate: 50%
[17]; all doses tested (10, 30, 100 mg/kg SC)
  GM-CSF in lung homogenate: showed a reduction of GM-CSF levels, but was less active than Lefamulin
[17]; all investigated doses (10, 30, 100 mg/kg SC), Valnemulin particularly at 10 and 30 mg/kg
  LPS-induced CCL2 increase in the lung homogenate: less active
[17]; [21]
  effect on CXCL1 compared to Lefamulin: less effect
  effect on CXCL2 compared to Lefamulin: less effect
[17]; [22]
  IL-6 level in lung homogenate, compared with Lefamulin: less active
  TNF-α level in lung homogenate, compared with Lefamulin: less active
[18]
  antiviral activity: did not exhibit antiviral activity
[19]; in vivo
  concentration of pro-inflammatory cytokines TNF-α, IL-6 and IL-1ß in bronchoalveolar lavage fluid: attenuate
[19]; pre-administration
  pulmonary wet-to-dry (W/D) ratio in the lung: significantly reduced
[20]
  lymphocyte cell counts in BALF: not significantly affected
  macrophage cell counts in BALF: not significantly affected

## Lefamulin acetate
[10]; 70 mg/kg single SC dose 30 min prior to IN LPS
  cell count in BALF: reduction
